Test results as given in ChEMBL document CHEMBL4706748, “Targeting KRAS Mutant Cancers via Combination Treatment: Discovery of a Pyridopyridazinone pan-RAF Kinase Inhibitor” (ACS Med Chem Lett, 2021).
Activity calls are given as the source filed them. The rule behind the calls is not given here.

Tests used:
Mus musculus [1] = assay: In vivo inhibition of RAF in human HCT116 cells xenografted in NCR mouse assessed as inhibition of DUSP6 gene expression at 5 mg/kg, po qd for 4 days measured upto 24 hrs of last dose; assay type: functional, organism-based; conditions: time 4.0 day
Mus musculus [2] = assay: In vivo inhibition of RAF in human HCT116 cells xenografted in NCR mouse assessed as inhibition of SPRY4 gene expression at 5 mg/kg, po qd for 4 days measured upto 24 hrs of last dose; assay type: functional, organism-based; conditions: time 4.0 day
[3] = molecular target: RAF proto-oncogene serine/threonine-protein kinase (Homo sapiens, UniProt P04049, Y340D/Y341D); assay: Inhibition of CRAF Y340D/Y341D mutant (unknown origin) assessed as using inactive phosphorylated MAP2K1 substrate preincubated for 30 mins measured after 90 mins by DELFIA assay
[4] = molecular target: Serine/threonine-protein kinase B-raf (Homo sapiens, UniProt P15056); assay: Inhibition of BRAF (unknown origin) (416 to 766) assessed as using inactive phosphorylated MAP2K1 substrate preincubated for 30 mins measured after 90 mins by DELFIA assay
A549 [5] = assay: Antiproliferative activity against human A549 cells harboring KRAS mutant assessed as reduction in cell viability; assay type: functional, cell-based
[6] = Efflux ratio of permeability across basolateral to apical side over apical to basolateral side in MDCK cells; assay type: ADME, cell-based, Canis lupus familiaris; conditions: dog
[7] = Apparent permeability across apical to basolateral side in MDCK cells; assay type: ADME, cell-based, Canis lupus familiaris; conditions: dog
A549 [8] = assay: Synergistic antiproliferative activity against human A549 cells harboring KRAS mutant assessed as reduction in cell viability in presence of 100 nM cobi-metinib; assay type: functional, cell-based
[9] = Half life in mouse; assay type: ADME, organism-based; conditions: in vivo
A-375 = assay: Antiproliferative activity against human A375 cells harboring BRAF mutant assessed as reduction in cell viability; assay type: functional, cell-based
[10] = Volume of distribution in mouse at 1 mg/kg, iv; assay type: ADME, organism-based; conditions: in vivo
[11] = Oral bioavailability in mouse at 5 mg/kg; assay type: ADME, organism-based; conditions: in vivo
[12] = Clearance in mouse at 1 mg/kg, iv; assay type: ADME, organism-based; conditions: in vivo
Mus musculus [13] = assay: In vivo inhibition of RAF in human HCT116 cells xenografted in NCR mouse assessed as inhibition of SPRY4 gene expression in presence of Cobi-metinib at 15 mg/kg, po qd for 4 days measured at 24 hrs of last dose; assay type: functional, organism-based; conditions: time 4.0 day
Mus musculus [14] = assay: In vivo inhibition of RAF in human HCT116 cells xenografted in NCR mouse assessed as inhibition of DUSP6 gene expression in presence of Cobi-metinib at 15 mg/kg, po qd for 4 days measured at 24 hrs of last dose; assay type: functional, organism-based; conditions: time 4.0 day
Mus musculus [15] = assay: In vivo inhibition of RAF in human HCT116 cells xenografted in NCR mouse assessed as inhibition of DUSP6 gene expression in presence of Cobi-metinib at 15 mg/kg, po qd for 4 days measured upto 8 hrs of last dose; assay type: functional, organism-based; conditions: time 4.0 day
Mus musculus [16] = assay: In vivo inhibition of RAF in human HCT116 cells xenografted in NCR mouse assessed as inhibition of pRSK gene expression in presence of Cobi-metinib at 15 mg/kg, po qd for 4 days measured upto 8 hrs of last dose; assay type: functional, organism-based; conditions: time 4.0 day
Mus musculus [17] = assay: In vivo inhibition of RAF in human HCT116 cells xenografted in NCR mouse assessed as inhibition of DUSP6 gene expression at 15 mg/kg, po qd for 4 days measured upto 24 hrs of last dose; assay type: functional, organism-based; conditions: time 4.0 day
Mus musculus [18] = assay: In vivo inhibition of RAF in human HCT116 cells xenografted in NCR mouse assessed as inhibition of SPRY4 gene expression at 15 mg/kg, po qd for 4 days measured upto 24 hrs of last dose; assay type: functional, organism-based; conditions: time 4.0 day
Mus musculus [19] = assay: In vivo inhibition of RAF in human HCT116 cells xenografted in NCR mouse assessed as inhibition of pRSK gene expression in presence of Cobi-metinib at 15 mg/kg, po qd for 4 days measured at 24 hrs of last dose; assay type: functional, organism-based; conditions: time 4.0 day
Mus musculus [20] = assay: In vivo inhibition of RAF in human HCT116 cells xenografted in NCR mouse assessed as inhibition of SPRY4 gene expression in presence of Cobi-metinib at 15 mg/kg, po qd for 4 days measured upto 8 hrs of last dose; assay type: functional, organism-based; conditions: time 4.0 day

Sequence of Serine/threonine-protein kinase B-raf (P15056 whole entry): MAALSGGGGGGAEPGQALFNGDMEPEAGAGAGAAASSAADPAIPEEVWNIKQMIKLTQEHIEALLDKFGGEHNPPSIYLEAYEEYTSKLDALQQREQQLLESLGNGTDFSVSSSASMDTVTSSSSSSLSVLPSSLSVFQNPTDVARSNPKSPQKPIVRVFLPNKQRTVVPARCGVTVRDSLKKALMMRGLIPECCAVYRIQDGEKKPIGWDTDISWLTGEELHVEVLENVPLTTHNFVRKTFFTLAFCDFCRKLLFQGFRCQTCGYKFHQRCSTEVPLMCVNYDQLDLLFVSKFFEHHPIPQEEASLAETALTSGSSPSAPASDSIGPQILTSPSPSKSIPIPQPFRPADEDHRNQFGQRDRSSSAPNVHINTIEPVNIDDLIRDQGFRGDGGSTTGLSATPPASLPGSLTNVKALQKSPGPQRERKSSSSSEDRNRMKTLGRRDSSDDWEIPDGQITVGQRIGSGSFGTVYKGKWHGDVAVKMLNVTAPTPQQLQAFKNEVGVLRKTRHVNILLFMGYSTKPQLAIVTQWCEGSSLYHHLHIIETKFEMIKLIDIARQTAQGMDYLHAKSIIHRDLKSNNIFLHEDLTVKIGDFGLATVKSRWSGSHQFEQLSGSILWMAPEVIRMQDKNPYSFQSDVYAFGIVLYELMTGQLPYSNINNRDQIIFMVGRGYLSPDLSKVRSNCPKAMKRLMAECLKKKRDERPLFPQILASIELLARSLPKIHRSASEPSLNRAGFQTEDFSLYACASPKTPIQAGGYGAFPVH
Sequence of RAF proto-oncogene serine/threonine-protein kinase (P04049 whole entry Y340D/Y341D): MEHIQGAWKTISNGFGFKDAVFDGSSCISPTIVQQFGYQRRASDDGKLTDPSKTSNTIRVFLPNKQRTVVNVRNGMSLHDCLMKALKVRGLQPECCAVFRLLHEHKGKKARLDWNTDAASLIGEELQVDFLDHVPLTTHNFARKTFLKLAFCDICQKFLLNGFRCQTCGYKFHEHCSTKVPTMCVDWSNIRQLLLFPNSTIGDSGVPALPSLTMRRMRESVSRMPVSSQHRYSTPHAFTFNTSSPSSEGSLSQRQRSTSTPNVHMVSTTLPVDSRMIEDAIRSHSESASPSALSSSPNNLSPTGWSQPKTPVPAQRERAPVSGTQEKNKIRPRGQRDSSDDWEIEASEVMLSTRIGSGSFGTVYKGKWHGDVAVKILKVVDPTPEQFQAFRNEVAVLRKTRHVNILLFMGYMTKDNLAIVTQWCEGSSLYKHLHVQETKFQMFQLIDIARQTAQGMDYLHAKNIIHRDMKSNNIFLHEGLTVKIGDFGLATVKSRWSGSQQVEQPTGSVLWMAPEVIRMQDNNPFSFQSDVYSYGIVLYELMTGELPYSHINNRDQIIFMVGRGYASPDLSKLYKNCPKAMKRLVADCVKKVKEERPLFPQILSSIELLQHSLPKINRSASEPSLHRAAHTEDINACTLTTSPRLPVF

Row | SMILES | Ki [3] [nM] | Ki [4] [nM] | IC50 (A549 [5]) [nM] | efflux ratio [6] | Papp A→B [7] [×10⁻⁶ cm/s] | IC50 (A549 [8]) [nM] | IC50 (A-375) [nM] | further results
1 | O=C(c1ccc(F)c(F)c1Nc1ccc(I)cc1F)N1CC(O)([C@@H]2CCCCN2)C1 | – | – | – | – | – | – | – | inhibition (Mus musculus [1]): Active; inhibition (Mus musculus [2]): Active
2 | Cc1cc(F)c(C(=O)NCCCC(C)(C)C)cc1-c1ccc2c(=O)n(C)ncc2c1 | 0.06 | 0.12 | 7730 | 0.74 | 8.1 | 1120 | – | –
3 | Cc1cc(F)c(NC(=O)NCCC(C)(C)C)cc1-c1ccc2c(=O)n(C)ncc2c1 | < 0.05 | < 0.08 | 1590 | 0.5 | 8.7 | 187 | 210 | half-life [9]: 1.3 h; Vd [10]: 2.1 L/kg; bioavailability [11]: 2%; clearance [12]: 22 mL/min/kg
4 | CNc1ncc2cc(-c3cc(NC(=O)NCCC(C)(C)C)c(F)cc3C)c(=O)n(C)c2n1 | 0.081 | 0.102 | 337 | – | – | 39.2 | 32.2 | –
5 | Cc1cc(F)c(NC(=O)NCCC(C)(C)C)cc1-c1ccc2cc(N)ncc2c1 | < 0.05 | < 0.08 | 668 | – | – | 148 | 224 | –
6 | Cc1cc(F)c(NC(=O)c2cccc(C(C)(C)C#N)c2)cc1-c1ccc2c(=O)n(C)ncc2c1 | < 0.05 | < 0.08 | 1360 | 1 | 7.8 | 138 | – | –
7 | CNc1ncc2cc(-c3cc(NC(=O)NCCC(C)(C)C)c(F)cc3C)c(C)nc2n1 [LY-3009120] | – | – | 545 | – | – | 45.6 | 28.3 | –
8 | Cc1cc(F)c(NC(=O)c2cccc(C(C)(C)C#N)c2)cc1-c1cnc2c(=O)n(C)ncc2c1 | 0.062 | 0.19 | 5470 | 0.86 | 14 | 369 | – | half-life [9]: 1.9 h; inhibition (Mus musculus [13]): inactive; inhibition (Mus musculus [14]): inactive; Vd [10]: 1.7 L/kg; inhibition (Mus musculus [15]): Active; inhibition (Mus musculus [16]): Active; inhibition (Mus musculus [17]): Active; bioavailability [11]: 37%; inhibition (Mus musculus [18]): Active; clearance [12]: 17 mL/min/kg; inhibition (Mus musculus [19]): inactive; inhibition (Mus musculus [20]): Active
9 | Cc1cc(F)c(NC(=O)NCCC(C)(C)C)cc1Nc1ccc2ncn(C)c(=O)c2c1F | – | < 0.08 | 2900 | – | – | 2900 | – | –
